Laboratory results reported in patent publication US20120220571A1, “HIV INTEGRASE INHIBITORS” (priority 2009, published 2012).
pIC50: −log10 of the molar value.

What was measured:
[1] = tested on: HIV; test: Inhibition of acute HIV infection, single cycle infectivity ("vertical") assay in HeLa P4-2 cells; type: cell-based; conditions: Human immunodeficiency virus 1, IIIB / NL43, HeLaP4-2
Procedure: An assay for measuring the inhibition of acute HIV infection with HeLa P4-2 cells in a single cycle infectivity assay (alternatively referred to as the “vertical” assay) was conducted in accordance with Joyce, J. G., et al., J. Biol. Chem. 2002, 277, 45811, Hazuda, D. J. et al., Science 2000, 287, 646, and Kimpton, J. et al, J. Virol. 1992, 66, 2232. Infectious virus was produced by transfecting 293T cells with HIV proviral DNA in which the integrase gene was derived from a IIIB isolate and the remainder of the HIV genome was derived from the NL4-3 isolate. […] For example, the compounds of Examples 1 to 4 were tested in this assay and found to have the IC50 values in Table C.

[2] = target: T1, HIV-1 integrase (Human immunodeficiency virus type 1 group M subtype B, UniProt P04585); test: HIV integrase assay: strand transfer catalyzed by recombinant integrase; type: biochemical; conditions: inhibition of strand transfer activity
T1 construct: Strand Transfer Catalyzed by Recombinant Integrase
Procedure: Assays for the strand transfer activity of HIV-1 integrase were conducted in accordance with WO 02/30930 for recombinant integrase. […] For example, the compounds prepared in Examples 1 to 4 were tested in the integrase assay and found to have the IC50 values in Table B.
Further description on conducting the assay using preassembled complexes is found in Wolfe, A. L. et al., J. Virol. 1996, 70: 1424-1432, Hazuda et al., J. Virol. 1997, 71: 7005-7011; Hazuda et al., Drug Design and Discovery 1997, 15: 17-24; and Hazuda et al., Science 2000, 287: 646-650.

| SMILES | pIC50 [1] | pIC50 [2] |
| --- | --- | --- |
| O=C1c2c(occ(O)c2=O)CCN1Cc1ccc(F)cc1 [Example 1, 6-(4-Fluorobenzyl)-3-hydroxy-7,8-dihydro-4H-pyrano[3,2-c]pyridine-4,5(6H)-dione] | 4.37 | 5.49 |
| CC1CCCCn2c3c(c(=O)c(O)c21)C(=O)N(Cc1ccc(F)cc1)CC3 (centres unmarked) [Example 4, 3-(4-Fluorobenzyl)-6-hydroxy-7-methyl-2,3,8,9,10,11-hexahydroazepino[1,2-a]-1,6-napthyridine-4,5(1H,7H)-dione] | 5.30 | 6.92 |
| C=CCCn1c2c(c(=O)c(O)c1C(C)C=C)C(=O)N(Cc1ccc(F)cc1)CC2 (centres unmarked) [Example 3, 1-But-3-en-1-yl-6-(4-fluorobenzyl)-3-hydroxy-2-(1-methylprop-2-en-1-yl)-7,8-dihydro-1,6-napthyridine-4,5(1H,6H)-dione] | 6.00 | 7.00 |
| C=CCc1c(O)c(=O)c2c(n1C)CCN(Cc1ccc(F)cc1)C2=O [Example 2, 2-Allyl-6-(4-fluorobenzyl)-3-hydroxy-1-methyl-7,8-dihydro-1,6-naphthyridine-4,5(1H,6H)-dione] | 5.30 | 7.00 |
